Laboratory results taken from PubChem BioAssay (NCI).
Several values for one entry are separate records, joined by “and”; a condition that tells them apart may be missing. Equal values may be shown once.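 Where inhibition never reached the appropriate level, the endpoint shown equals the highest concentration tested. Otherwise, values were interpolated linearly from a five-concentration, 48-hour dose response in 96-well plates. At the GI50, growth is halved. The concentration for full growth arrest is given as TGI.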

These compounds were tested on NCI-H460 lung (assay: growth of human tumour cells (NCI), 48 h).

Q: With `C/C1=C\[C@@H](O)C(=O)/C=C/C=C\c2csc(n2)[C@@H](C)NC(=O)C[C@@]2(CC1)S(=O)SC(=O)[C@]2(C)O` (some centres not stated) as the compound, how does the TGI read?
A: 0.27 µM and 0.327 µM

Q: With `CCOC(=O)C(=O)Nc1cc(Cl)ccc1Cl` as the compound, how does the TGI read?
A: > 100 µM

Q: With `[N-]=[N+]=C1C(=O)C2CC3CC(C2)CC1C3` as the compound, how does the TGI read?
A: > 100 µM

Q: With `COC(=O)CC1NC(=O)C1C1(C)OCCO1` (configuration not stated) as the compound, how does the TGI read?
A: > 100 µM

Q: Which TGI does the source give for `CN(C)CCC(/C=C/c1ccccc1)=N\Nc1ccc(Cl)cc1Cl` here?
A: 28.1 µM

Q: Which TGI does the source give for `Cc1ccc(S(=O)OC2C3CC4CC(C3)CC2C4)cc1` (configuration not stated) here?
A: > 100 µM

Q: `CN(C)c1ccc(/C=C2\C=Cc3ccccc32)cc1` was tested. Which TGI did it give?
A: > 100 µM

Q: `C/C=C(\C)c1cc(O)c(C)c2c1Oc1cc(O)c(Cl)c(C)c1C(=O)O2` was tested. Which TGI did it give?
A: 39.7 µM

Q: With `COC(=O)C(C)(C)N=CN(C)C` as the compound, how does the TGI read?
A: > 100 µM

Q: How did the TGI turn out when `CCOC1=C2N=C(Cc3ccccc3F)N=C2C(=O)c2ccccc21` was run?
A: > 100 µM

Q: How did the TGI turn out when `C=C1CCC2[C@@H](CCC3[C@]2(C)CCC[C@]3(C)C(=O)OC)[C@@H]1CC=O` (some centres not stated) was run?
A: 41.3 µM

Q: `CN1COc2c(n(C)c(=O)[nH]c2=O)C1` was tested. Which TGI did it give?
A: > 100 µM

Q: How did the TGI turn out when `CCCCCCN(N)C(=O)CC#N` was run?
A: > 100 µM

Q: How did the TGI turn out when `O=C(O)/C(Cl)=C(\Cl)C(=O)Nc1ccc(Cl)c(Cl)c1Cl` was run?
A: 45.9 µM

Q: How did the TGI turn out when `CC1(C)C2CCC13CS(=O)(=O)N1O[C@]13C(=O)O2` (some centres not stated) was run?
A: > 100 µM

These compounds were tested on HOP-92 NSCLC (assay: growth of human tumour cells (NCI), 48 h).

Q: How did the TGI turn out when `C/C1=C\[C@@H](O)C(=O)/C=C/C=C\c2csc(n2)[C@@H](C)NC(=O)C[C@@]2(CC1)S(=O)SC(=O)[C@]2(C)O` (some centres not stated) was run?
A: 0.011 µM

Q: With `CCOC(=O)C(=O)Nc1cc(Cl)ccc1Cl` as the compound, how does the TGI read?
A: > 100 µM

Q: Which GI50 does the source give for `N#Cc1ccc(N=Cc2c([O-])ccc3ccccc23)cc1.[C-]#[O+].[C-]#[O+].[Ir]` here?
A: 3.23 µM

Q: And the TGI?
A: 10.3 µM

Q: How did the TGI turn out when `[N-]=[N+]=C1C(=O)C2CC3CC(C2)CC1C3` was run?
A: > 100 µM

Q: With `Cc1ccc(S(=O)OC2C3CC4CC(C3)CC2C4)cc1` (configuration not stated) as the compound, how does the TGI read?
A: > 100 µM

Q: `CN(C)c1ccc(/C=C2\C=Cc3ccccc32)cc1` was tested. Which TGI did it give?
A: > 100 µM

Q: `COC(=O)C(C)(C)N=CN(C)C` was tested. Which TGI did it give?
A: > 100 µM

Q: For `CCOC1=C2N=C(Cc3ccccc3F)N=C2C(=O)c2ccccc21`, which TGI is on record?
A: > 100 µM

Q: How did the TGI turn out when `C=C1CCC2[C@@H](CCC3[C@]2(C)CCC[C@]3(C)C(=O)OC)[C@@H]1CC=O` (some centres not stated) was run?
A: 48.9 µM

Q: `CN1COc2c(n(C)c(=O)[nH]c2=O)C1` was tested. Which TGI did it give?
A: > 100 µM

Q: Which TGI does the source give for `CCCCCCN(N)C(=O)CC#N` here?
A: > 100 µM

Q: `O=C(O)/C(Cl)=C(\Cl)C(=O)Nc1ccc(Cl)c(Cl)c1Cl` was tested. Which TGI did it give?
A: 31.1 µM

Q: For `CC1(C)C2CCC13CS(=O)(=O)N1O[C@]13C(=O)O2` (some centres not stated), which TGI is on record?
A: > 100 µM

These compounds were tested on NCI-H522 lung (assay: growth of human tumour cells (NCI), 48 h).

Q: For `C/C1=C\[C@@H](O)C(=O)/C=C/C=C\c2csc(n2)[C@@H](C)NC(=O)C[C@@]2(CC1)S(=O)SC(=O)[C@]2(C)O` (some centres not stated), which TGI is on record?
A: 0.0105 µM

Q: How did the TGI turn out when `CCOC(=O)C(=O)Nc1cc(Cl)ccc1Cl` was run?
A: > 100 µM

Q: Which results are given for `N#Cc1ccc(N=Cc2c([O-])ccc3ccccc23)cc1.[C-]#[O+].[C-]#[O+].[Ir]`?
A: GI50: 1.13 µM; TGI: 2.45 µM

Q: `[N-]=[N+]=C1C(=O)C2CC3CC(C2)CC1C3` was tested. Which TGI did it give?
A: > 100 µM

Q: `CN(C)CCC(/C=C/c1ccccc1)=N\Nc1ccc(Cl)cc1Cl` was tested. Which TGI did it give?
A: 30.6 µM

Q: `Cc1ccc(S(=O)OC2C3CC4CC(C3)CC2C4)cc1` (configuration not stated) was tested. Which TGI did it give?
A: > 100 µM

Q: How did the TGI turn out when `CN(C)c1ccc(/C=C2\C=Cc3ccccc32)cc1` was run?
A: 52.3 µM

Q: With `C/C=C(\C)c1cc(O)c(C)c2c1Oc1cc(O)c(Cl)c(C)c1C(=O)O2` as the compound, how does the TGI read?
A: 51.3 µM

Q: Which TGI does the source give for `COC(=O)C(C)(C)N=CN(C)C` here?
A: > 100 µM

Q: Which TGI does the source give for `CCOC1=C2N=C(Cc3ccccc3F)N=C2C(=O)c2ccccc21` here?
A: > 100 µM

Q: How did the GI50 turn out when `C=C1CCC2[C@@H](CCC3[C@]2(C)CCC[C@]3(C)C(=O)OC)[C@@H]1CC=O` (some centres not stated) was run?
A: > 100 µM

Q: What about the TGI of the same compound?
A: > 100 µM

Q: Which TGI does the source give for `CN1COc2c(n(C)c(=O)[nH]c2=O)C1` here?
A: > 100 µM

Q: How did the TGI turn out when `CCCCCCN(N)C(=O)CC#N` was run?
A: > 100 µM

Q: For `O=C(O)/C(Cl)=C(\Cl)C(=O)Nc1ccc(Cl)c(Cl)c1Cl`, which TGI is on record?
A: 23.7 µM

Q: For `CC1(C)C2CCC13CS(=O)(=O)N1O[C@]13C(=O)O2` (some centres not stated), which TGI is on record?
A: > 100 µM

Each compound was assayed on ACHN renal (assay: growth of human tumour cells (NCI), 48 h).

Q: `C/C1=C\[C@@H](O)C(=O)/C=C/C=C\c2csc(n2)[C@@H](C)NC(=O)C[C@@]2(CC1)S(=O)SC(=O)[C@]2(C)O` (some centres not stated) was tested. Which GI50 did it give?
A: 0.00433 µM

Q: What about the TGI of the same compound?
A: 0.038 µM and 0.0122 µM

Q: With `CCOC(=O)C(=O)Nc1cc(Cl)ccc1Cl` as the compound, how does the TGI read?
A: > 100 µM

Q: With `N#Cc1ccc(N=Cc2c([O-])ccc3ccccc23)cc1.[C-]#[O+].[C-]#[O+].[Ir]` as the compound, how does the GI50 read?
A: 6.32 µM

Q: And the TGI?
A: 18.7 µM

Q: `[N-]=[N+]=C1C(=O)C2CC3CC(C2)CC1C3` was tested. Which TGI did it give?
A: > 100 µM

Q: How did the TGI turn out when `COC(=O)CC1NC(=O)C1C1(C)OCCO1` (configuration not stated) was run?
A: > 100 µM

Q: `CN(C)CCC(/C=C/c1ccccc1)=N\Nc1ccc(Cl)cc1Cl` was tested. Which TGI did it give?
A: 25.5 µM

Q: With `Cc1ccc(S(=O)OC2C3CC4CC(C3)CC2C4)cc1` (configuration not stated) as the compound, how does the TGI read?
A: > 100 µM

Q: For `CN(C)c1ccc(/C=C2\C=Cc3ccccc32)cc1`, which TGI is on record?
A: > 100 µM

Q: `C/C=C(\C)c1cc(O)c(C)c2c1Oc1cc(O)c(Cl)c(C)c1C(=O)O2` was tested. Which TGI did it give?
A: 54.6 µM

Q: How did the TGI turn out when `COC(=O)C(C)(C)N=CN(C)C` was run?
A: > 100 µM

Q: `CCOC1=C2N=C(Cc3ccccc3F)N=C2C(=O)c2ccccc21` was tested. Which TGI did it give?
A: > 100 µM

Q: Which TGI does the source give for `C=C1CCC2[C@@H](CCC3[C@]2(C)CCC[C@]3(C)C(=O)OC)[C@@H]1CC=O` (some centres not stated) here?
A: 82 µM

Q: Which TGI does the source give for `CN1COc2c(n(C)c(=O)[nH]c2=O)C1` here?
A: > 100 µM

Q: With `CCCCCCN(N)C(=O)CC#N` as the compound, how does the TGI read?
A: > 100 µM

Q: With `O=C(O)/C(Cl)=C(\Cl)C(=O)Nc1ccc(Cl)c(Cl)c1Cl` as the compound, how does the TGI read?
A: 32 µM

Q: For `CC1(C)C2CCC13CS(=O)(=O)N1O[C@]13C(=O)O2` (some centres not stated), which TGI is on record?
A: > 100 µM

Each compound was assayed on DLD-1 colon (assay: growth of human tumour cells (NCI), 48 h).

Q: `C/C1=C\[C@@H](O)C(=O)/C=C/C=C\c2csc(n2)[C@@H](C)NC(=O)C[C@@]2(CC1)S(=O)SC(=O)[C@]2(C)O` (some centres not stated) was tested. Which TGI did it give?
A: 0.213 µM and 0.0233 µM

Q: How did the TGI turn out when `CCOC(=O)C(=O)Nc1cc(Cl)ccc1Cl` was run?
A: > 100 µM

Q: Which results are given for `N#Cc1ccc(N=Cc2c([O-])ccc3ccccc23)cc1.[C-]#[O+].[C-]#[O+].[Ir]`?
A: GI50: 1.96 µM; TGI: 4.09 µM

Q: With `[N-]=[N+]=C1C(=O)C2CC3CC(C2)CC1C3` as the compound, how does the TGI read?
A: > 100 µM

Q: With `COC(=O)CC1NC(=O)C1C1(C)OCCO1` (configuration not stated) as the compound, how does the TGI read?
A: > 100 µM

Q: `CN(C)CCC(/C=C/c1ccccc1)=N\Nc1ccc(Cl)cc1Cl` was tested. Which TGI did it give?
A: 27.9 µM

Q: Which TGI does the source give for `Cc1ccc(S(=O)OC2C3CC4CC(C3)CC2C4)cc1` (configuration not stated) here?
A: > 100 µM

Q: For `CN(C)c1ccc(/C=C2\C=Cc3ccccc32)cc1`, which TGI is on record?
A: > 100 µM

Q: `C/C=C(\C)c1cc(O)c(C)c2c1Oc1cc(O)c(Cl)c(C)c1C(=O)O2` was tested. Which TGI did it give?
A: 33.9 µM

Q: `COC(=O)C(C)(C)N=CN(C)C` was tested. Which TGI did it give?
A: > 100 µM

Q: `CCOC1=C2N=C(Cc3ccccc3F)N=C2C(=O)c2ccccc21` was tested. Which TGI did it give?
A: > 100 µM

Q: With `C=C1CCC2[C@@H](CCC3[C@]2(C)CCC[C@]3(C)C(=O)OC)[C@@H]1CC=O` (some centres not stated) as the compound, how does the TGI read?
A: > 100 µM

Q: How did the TGI turn out when `CN1COc2c(n(C)c(=O)[nH]c2=O)C1` was run?
A: > 100 µM

Q: With `CCCCCCN(N)C(=O)CC#N` as the compound, how does the TGI read?
A: > 100 µM

Q: With `O=C(O)/C(Cl)=C(\Cl)C(=O)Nc1ccc(Cl)c(Cl)c1Cl` as the compound, how does the TGI read?
A: 47.3 µM

Q: `CC1(C)C2CCC13CS(=O)(=O)N1O[C@]13C(=O)O2` (some centres not stated) was tested. Which TGI did it give?
A: > 100 µM

These compounds were tested on CAKI-1 renal (assay: growth of human tumour cells (NCI), 48 h).

Q: `C/C1=C\[C@@H](O)C(=O)/C=C/C=C\c2csc(n2)[C@@H](C)NC(=O)C[C@@]2(CC1)S(=O)SC(=O)[C@]2(C)O` (some centres not stated) was tested. Which TGI did it give?
A: 0.0191 µM
